Positions of bridges follow the written chain, without caps; N, C: chain ends. Residues, ends and D or L forms follow the SMILES beside them.
Key:
[1] = system: patients meeting modified Rome II criteria for constipation-predominant irritable bowel syndrome; test: Trial 2 (MCP-103-302): randomized, double-blind, placebo-controlled trial with 26-week treatment period; type: in vivo, human
Protocol: (§1) Linaclotide capsules from Example 4 were administered in two multicenter, randomized, double-blind, placebo-controlled parallel-group trials.
Trial 2 (MCP-103-302) was conducted on approximately 805 patients meeting modified Rome II criteria for constipation-predominant irritable bowel syndrome (<3 CSBM/wk, ≤5 SBM/wk, abdominal pain≥3 on a 0-10 scale.) As in Trial 1, the trial included a two-week pretreatment baseline period; however, the treatment period was continued for 26 weeks rather than 12 weeks as in Trial 1, and no randomized withdrawal period was performed (see FIG. 1B).
(§2) The Pretreatment Period is defined as the 14 to 21 calendar days immediately before starting the trial during which patients provided information related to their daily bowel habits, daily assessment of the symptom severity (such as, e.g., abdominal pain), constipation severity, and use of other medicines, laxatives, suppositories, and/or enemas. Patients who satisfied the necessary criteria were entered into the Treatment Period.
(§3) In both trials, the Treatment Period began with randomization. In Trial 1, treatment lasted for 12 weeks. In Trial 2, treatment lasted for 26 weeks. Patients were randomized to approximately equal-sized treatment groups consisting of 266 μg linaclotide or a placebo, taken once daily in the morning 30 minutes before breakfast. Patients continued to provide daily assessments such as their daily bowel habit assessments and daily patient symptom severity assessments.
(§4) In both trials, daily assessment data for patients in both treatment groups were compiled to give the following primary, co-primary and secondary treatment efficacy endpoints, which have been defined by United States and European regulatory agencies for the study of the efficacy of IBS-C.
(§5) A patient was classified as a 9/12 Week APC 3+1 Responder if they were a weekly APC 3+1 Responder for ≥9 out of the 12 (i.e., 9/12) weeks of the study.
(§6) A patient was classified as a 9/12 Week CSBM 3+1 Responder if they were a weekly CSBM 3+1 Responder for ≥9/12 weeks.
(§7) A patient was classified as a 9/12 Week Abdominal Pain Responder if they were a weekly Abdominal Pain Responder for ≥9/12 weeks.
(§8) A patient was classified as a 6/12 Week APC+1 Responder if they were a weekly APC+1 Responder for ≥6 out of the 12 (i.e., 6/12) weeks of the study.
In Trial 2, the above co-primary efficacy parameters, 12-week Abdominal Pain/Abdominal Discomfort Responder and 12-week IBS Degree of Relief Responder, were also computed for the full 26 week treatment period.
(§9) Also compiled from the patient daily data were the following secondary efficacy endpoints: • Change From Baseline (i.e., change from pre-treatment period) in CSBM Frequency Rate (measured as a weekly rate); • Change From Baseline (“CFB”) in SBM Frequency Rate (weekly rate); • Change From Baseline in Stool Consistency (measured on a 7-point BSFS); • Change From Baseline in Severity of Straining (measured on a 5-point scale); • Change From Baseline in Abdominal Pain (measured on a 11-point numerical rating scale and scored 0-10); • Change From Baseline in Abdominal Discomfort (measured on […] numerical rating scale and scored 0-10); • Change From Baseline in Bloating (measured on a 11-point numerical rating scale and scored 0-10); • 6/12 Week CSBM+1 Responder; • 6/12 Week Abdominal Pain Responder; and • Change From Baseline in Percent of Abdominal Pain-free Days (Pain-free is a score of 0 on the 0-10 point scale).

[2] = system: patients meeting modified Rome II criteria for constipation-predominant irritable bowel syndrome; test: Trial 1 (LIN-MD-31): randomized, double-blind, placebo-controlled trial with 12-week treatment period and randomized withdrawal period; type: in vivo, human
Protocol: as §1
Trial 1 (LIN-MD-31) was conducted on approximately 800 patients meeting modified Rome II criteria for constipation-predominant irritable bowel syndrome. The trial included a two-week pretreatment baseline period, a 12-week treatment period, and a randomized withdrawal period (see FIG. 1A).
as §2, §3, §4, §5, §6, §7, §8, §9
Patients who were randomized to linaclotide in the Treatment Period and completed the 12 weeks of the Treatment Period, the RW Population, were randomized to treatment with linaclotide or placebo in the RW Period as follows: half of the RW Population received placebo for the first half of the RW Period followed by administration of 266 μg linaclotide; one quarter of the RW Population received 266 μg linaclotide for the entire RW Period and the remaining one quarter of the RW Population received 266 μg linaclotide for the first half of the RW Period and placebo for the remainder of the RW Period. Patients that were randomized to placebo in the Treatment Period and completed the 12 weeks of the Treatment Period received 266 μg linaclotide in the RW Period.

[3] = Systemic levels of linaclotide after oral administration; type: in vivo; settings: after oral administration at therapeutic dose levels
[4] = system: chronic constipation (CC); settings: Phase 2b studies for CC; four-week treatment period; cited from earlier work
[5] = 266 μg linaclotide group, once daily
[6] = 266 μg linaclotide group, once daily, first 12 weeks
[7] = 26-week treatment period, linaclotide-treated patients
[8] = after 12 weeks, linaclotide-treated patients
[9] = main secondary efficacy endpoint, full 26 week treatment period
[10] = throughout the 26-week treatment period, linaclotide-treated patients
[11] = 266 μg linaclotide group, once daily, 12 weeks

SMILES: C[C@@H]1NC(=O)[C@@H]2CCCN2C(=O)[C@H](CC(N)=O)NC(=O)[C@@H]2CSSC[C@H](N)C(=O)N[C@H]3CSSC[C@H](NC1=O)C(=O)N[C@@H]([C@@H](C)O)C(=O)NCC(=O)N[C@H](C(=O)N[C@@H](Cc1ccc(O)cc1)C(=O)O)CSSC[C@H](NC(=O)[C@H](Cc1ccc(O)cc1)NC(=O)[C@H](CCC(=O)O)NC3=O)C(=O)N2 [linaclotide, Cys1 Cys2 Glu3 Tyr4 Cys5 Cys6 Asn7 Pro8 Ala9 Cys10 Thr11 Gly12 Cys13 Tyr14] (H-CCEYCCNPACTGCY-OH; disulfide 1-6, 2-10, 5-13)
- 12-week Abdominal Pain/Abdominal Discomfort Responder [1, 5]: 54.1%
- 12-week IBS Degree of Relief Responder [1, 5]: 39.4%
- 6/12-week APC+1 pain responder rate [1, 6]: 33.7%
- 9/12-week APC 3+1 responder rate [1, 6]: 12.7%
- 9/12-week CSBM 3+1 responder rate [1, 6]: 18.0%
- 9/12-week abdominal pain responder rate [1, 6]: 38.9%
- overall rate of discontinuation due to adverse events [1, 7]: 10.2%
- patients discontinued due to diarrhea [1, 7]: 4.5%
- overall rate of discontinuation due to adverse events ([1]; after 12 weeks, linaclotide group): 9%
- adverse event: abdominal pain [1, 8]: 4%
- adverse event: diarrhea [1, 8]: 18%
- adverse event: flatulence [1, 8]: 3%
- adverse event: headache [1, 8]: 3%
- 12-week Abdominal Pain/Abdominal Discomfort Responder: Statistical Significance (266 μg vs. Placebo) ([1]; co-primary efficacy parameter): Yes
- 12-week IBS Degree of Relief Responder: Statistical Significance (266 μg vs. Placebo) ([1]; co-primary efficacy parameter): Yes
- 26-week Abdominal Pain/Abdominal Discomfort Responder: Statistical Significance (266 μg vs. Placebo) [1, 9]: Yes
- 26-week IBS Degree of Relief Responder: Statistical Significance (266 μg vs. Placebo) [1, 9]: Yes
- CSBMs per week compared with placebo ([1]; on average, 12 weeks after treatment, FIG. 12C): more CSBMs per week than with the placebo alone
- time until abdominal pain was reduced over the pre-treatment baseline ([1]; on average, sustained throughout the 26 week treatment period): 1 to 3 days
- 6/12 Week APC + 1 Responder: Statistical Significance (266 μg vs. Placebo) ([1]; primary efficacy endpoint): Yes
- 9/12 Week APC 3 + 1 Responder: Statistical Significance (266 μg vs. Placebo) ([1]; primary efficacy endpoint): Yes
- 9/12 Week Abdominal Pain Responder: Statistical Significance (266 μg vs. Placebo) ([1]; primary efficacy endpoint): Yes
- 9/12 Week CSBM 3 + 1 Responder: Statistical Significance (266 μg vs. Placebo) ([1]; primary efficacy endpoint): Yes
- 6/12 Week Abdominal Pain Responder: Statistical Significance (266 μg vs. Placebo) ([1]; secondary efficacy endpoint): Yes
- 6/12 Week CSBM + 1 Responder: Statistical Significance (266 μg vs. Placebo) ([1]; secondary efficacy endpoint): Yes
- 12-Week Abdominal Discomfort (CFB): Statistical Significance (266 μg vs. Placebo) ([1]; secondary efficacy endpoint): Yes
- 12-Week Abdominal Pain (CFB): Statistical Significance (266 μg vs. Placebo) ([1]; secondary efficacy endpoint): Yes
- 12-Week Bloating (CFB): Statistical Significance (266 μg vs. Placebo) ([1]; secondary efficacy endpoint): Yes
- 12-Week CSBM Frequency Rate(CFB): Statistical Significance (266 μg vs. Placebo) ([1]; secondary efficacy endpoint): Yes
- 12-Week Percent of Abdominal Pain-free Days (CFB): Statistical Significance (266 μg vs. Placebo) ([1]; secondary efficacy endpoint): Yes
- 12-Week SBM Frequency Rate (CFB): Statistical Significance (266 μg vs. Placebo) ([1]; secondary efficacy endpoint): Yes
- 12-Week Severity of Straining (CFB): Statistical Significance (266 μg vs. Placebo) ([1]; secondary efficacy endpoint): Yes
- 12-Week Stool Consistency (CFB): Statistical Significance (266 μg vs. Placebo) ([1]; secondary efficacy endpoint): Yes
- adverse event: abdominal pain [1, 10]: 4.5%
- adverse event: diarrhea [1, 10]: 19.7%
- adverse event: flatulence [1, 10]: 3.7%
- adverse event: headache [1, 10]: 3.2%
- adverse event: viral gastroenteritis [1, 10]: 3.7%
- 6/12-week APC+1 pain responder rate [2, 11]: 33.6%
- 6/12-week abdominal pain responder rate [2, 11]: 50.1%
- 6/12 week CSBM+1 responder rate [2, 11]: 48.6%
- 9/12-week APC 3+1 responder rate [2, 11]: 12.1%
- 9/12-week CSBM 3+1 responder rate [2, 11]: 19.5%
- 9/12-week abdominal pain responder rate [2, 11]: 34.3%
- 12-week Abdominal Pain/Abdominal Discomfort Responder [2, 11]: 54.8%
- 12-week IBS Degree of Relief Responder [2, 11]: 37.0%
- rebound of IBS-C symptoms following discontinuation of linaclotide treatment ([2]; Randomized Withdrawal Period): no evidence of rebound of IBS-C symptoms
- 12-week Abdominal Pain/Abdominal Discomfort Responder: Statistical Significance (266 μg vs. Placebo) ([2]; co-primary efficacy parameter): Yes
- 12-week IBS Degree of Relief Responder: Statistical Significance (266 μg vs. Placebo) ([2]; co-primary efficacy parameter): Yes
- adverse event: diarrhea with mild symptoms ([2]; linaclotide group): 9%
- adverse event: diarrhea with moderate symptoms ([2]; linaclotide group): 8%
- adverse event: diarrhea with severe symptoms ([2]; linaclotide group): 2%
- overall rate of discontinuation due to adverse events ([2]; linaclotide group): 8%
- patients reporting at least a 10% improvement in abdominal symptoms over 12 weeks ([2]; linaclotide treatment, FIG. 10): under 80%
- adverse event: abdominal pain ([2]; linaclotide-treated patients): 5%
- adverse event: diarrhea ([2]; linaclotide-treated patients): 19%
- adverse event: flatulence ([2]; linaclotide-treated patients): 5%
- adverse event: headache ([2]; linaclotide-treated patients): 5%
- more CSBMs per week than with the placebo alone ([2]; on average, 12 weeks, FIG. 12C): about 1.5 CSBMs per week
- time until abdominal pain was reduced over the pre-treatment baseline ([2]; on average, sustained throughout the treatment period): 1 to 3 days
- 6/12 Week APC + 1 Responder: Statistical Significance (266 μg vs. Placebo) ([2]; primary efficacy endpoint): Yes
- 9/12 Week APC 3 + 1 Responder: Statistical Significance (266 μg vs. Placebo) ([2]; primary efficacy endpoint): Yes
- 9/12 Week Abdominal Pain Responder: Statistical Significance (266 μg vs. Placebo) ([2]; primary efficacy endpoint): Yes
- 9/12 Week CSBM 3 + 1 Responder: Statistical Significance (266 μg vs. Placebo) ([2]; primary efficacy endpoint): Yes
- 6/12 Week Abdominal Pain Responder: Statistical Significance (266 μg vs. Placebo) ([2]; secondary efficacy endpoint): Yes
- 6/12 Week CSBM + 1 Responder: Statistical Significance (266 μg vs. Placebo) ([2]; secondary efficacy endpoint): Yes
- 12-Week Abdominal Discomfort (CFB): Statistical Significance (266 μg vs. Placebo) ([2]; secondary efficacy endpoint): Yes
- 12-Week Abdominal Pain (CFB): Statistical Significance (266 μg vs. Placebo) ([2]; secondary efficacy endpoint): Yes
- 12-Week Bloating (CFB): Statistical Significance (266 μg vs. Placebo) ([2]; secondary efficacy endpoint): Yes
- 12-Week CSBM Frequency Rate(CFB): Statistical Significance (266 μg vs. Placebo) ([2]; secondary efficacy endpoint): Yes
- 12-Week Percent of Abdominal Pain-free Days (CFB): Statistical Significance (266 μg vs. Placebo) ([2]; secondary efficacy endpoint): Yes
- 12-Week SBM Frequency Rate (CFB): Statistical Significance (266 μg vs. Placebo) ([2]; secondary efficacy endpoint): Yes
- 12-Week Severity of Straining (CFB): Statistical Significance (266 μg vs. Placebo) ([2]; secondary efficacy endpoint): Yes
- 12-Week Stool Consistency (CFB): Statistical Significance (266 μg vs. Placebo) ([2]; secondary efficacy endpoint): Yes
- levels of linaclotide seen systemically [3]: no detectable levels
- effect on constipation, abdominal discomfort and bloating [4]: reduced constipation, abdominal discomfort, and bloating

Reference: patent US20240115656A1, “Treatment of Constipation-Predominant Irritable Bowel Syndrome” (Ironwood Pharmaceuticals, Inc., priority 2010, published 2024)
